Reference: ChEMBL document CHEMBL5727793, “Covalent inhibitors of PAD4” (2020)

Assay: RapidFire Mass Spectrometry (RFMS) Activity Assay: Compounds were solubilized in 100% DMSO to achieve 100 mM final compound concentration. Compound stock solutions were stored at RT. A series of dilutions were prepared in DMSO and mixed 8 times with 20 μL mixing volume. […] After 5 mins, 10 μL of 100 μM of substrate in buffer (100 mM Tris-HCl pH 7.6, 2 mM DTT, 2 mM CaCl2) was added and the reaction incubated for 60 mins at 37° C. The enzymatic reaction was quenched by addition of 40 μl of 5% TCA in ACN (1.7% TCA final concentration) stop solution. Arginine containing substrate and citrulline containing product (+1 Da mass shift) were subjected to solid phase extraction on Agilent RapidFire (RF) 300 system and detected on a coupled, triple quadrupole Agilent 6460 QQQ mass spectrometry (MS) device under application of multiple reaction monitoring (MRM) for quantitation.

| SMILES | IC50 [µM] |
| --- | --- |
| CN(C)C/C=C/C(=O)N[C@H]1CCN(C(=O)c2ccc3c(c2)nc(-c2cc4cccnc4n2CC2CC2)n3C)C[C@H]1N | > 10 |
| CN(C)C/C=C/C(=O)N[C@@H]1C[C@H](N)CN(C(=O)c2ccc3c(c2)nc(-c2cc4cccnc4n2CC2CC2)n3C)C1 | > 10 |
